US10466259B2, “Synthetic antigen compositions for detecting anti-phosphatidylethanolamine antibodies” (Northwestern Univeristy, priority 2015, dated 2019)
“Also recorded” adds a separate entry of the source.

Experiments:
Type in all cases: binding, human
[1] = tested on: cofactor-independent aPE IgM; assay: ELISA of synthetic PE compositions, cofactor-independent aPE IgM; conditions: FIG. 9
Experimental: FIGS. 12A-B. Determination of PE coating amount and its impact on ELISA. A, B. determination of PE coating Amount. The indicated amount of PE was coated on 96 well plate and Elisa was performed. The relative OD405 value was deducted the normal serum value. The error bar represents SEM, n=3. A for egg PE, B for 20% 18:0 PE, 13.3% 18:1 PE, 39.9% 20:4 PE, and 26.6% 22:6 PE.
FIG. 13. A head-to-head comparison on the ELISA performance between egg PE and the synthetic formulation. The ELISA place was coated with 0.5 μg of egg PE or the kit formulation (20% 18:0 PE, 13.3% 18:1 PE, 39.9% 20:4 PE, and 26.6% 22:6 PE). OD405 was measured after ELISA and the relative OD value was subtracted from the normal human serum value. The net value was the mean of triplicates. A total 11 patient serum samples were tested for experiments.
Egg PE is currently the most widely used source of PE in ELISA tests for aPE.

[2] = tested on: cofactor-independent aPE IgG; assay: ELISA of synthetic PE compositions, cofactor-independent aPE IgG
Experimental: FIG. 15. Head-to-head comparison between egg PE and synthetic 20:4 PE on the ELISA for cofactor-independent aPE IgG reactivity. The 96 well plate was coated with 1 mg of indicated PE per well, OD405 was measured after ELISA and the relative OD value was determined by subtracting the OD value of normal human serum from the patient sample. […] A total 14 patient serums were tested.

[3] = tested on: cofactor-independent IgG aPE; assay: ELISA with affinity-purified total IgG, cofactor-independent sample; conditions: FIG. 18, total IgG 200 μg/ml
Experimental: (§1) FIG. 18. aPE reactivity to egg PE, 20:4 PE and 18:1 PE using affinity-purified total IgG from a cofactor-dependent and a cofactor-independent IgG aPE patient plasma. For each ELISA test, the total IgG was used at a concentration of 200 μg/ml. […] The values are means of triplicates.
(§2) To minimize uncertainties caused by potential confounding factors in the serum and variations in immunoglobulin contents, the total IgG was isolated from representative aPE patient serum samples and was used to validate ELISA assays.
(§3) Microplates were coated using Egg PE, 20:4 PE or 18:1 PE for IgG aPE ELISA for normal human serum, a representative cofactor-dependent and cofactor-independent patient serum.

[4] = tested on: cofactor-dependent IgG aPE; assay: ELISA with affinity-purified total IgG, cofactor-dependent samples
Experimental: as §1
The values are means of triplicates.
as §2, §3

cofactor-independent aPE = assay: aPE ELISA, cofactor-independent patient serum (Example 1); conditions: representative patient serum, antigen 1 to 400 μg/ml, FIG. 1
Experimental: For aPE ELISA assays (ref. 14; herein incorporated by reference in its entirety), microtiter plates (PolySorp, Thermo Fisher, Pittsburgh, USA) were coated with 50 μl of a solution containing various concentrations of egg yolk PE or equal molar amounts of DOPE in ethanol:chloroform (4:1) and dried by evaporation at room temperature (RT) in an extractor shielded from light. Each well was blocked for two hours at RT with 10% BSA in PBS followed by 50 μl of patient serum diluted 1/100 in PBS for one hour at RT. aPEs were assessed by using alkaline phosphatase conjugated polyclonal antibody (Ab) against either human IgG or IgM. The plates were washed three times with PBS after blocking, serum and conjugate incubations. After color development with paranitrophenyl phosphate as substrate, optical density at 405 nm was measured. OD values of pooled normal serum control were subtracted from those of patient serum samples measured with the same PE concentration.
In order to determine the optimal concentration of antigen in aPE ELISA, wells were coated with a series of concentrations of egg yolk PE ranging from 1 to 400 μg/ml aPEs or normal control serum were assessed with alkaline phosphatase conjugated polyclonal Ab to either IgG or IgM. […]

CCCCC/C=C\C/C=C\C/C=C\C/C=C\CCCC(=O)OC[C@H](COP(=O)(O)OCCN)OC(=O)CCC/C=C\C/C=C\C/C=C\C/C=C\CCCCC [20:4 PE, arachidonic PE]
ELISA performance compared with egg PE ([1]; 0.5 mg PE per well, relative OD405 normalized with egg PE, serum from patient J083006H, n=3): out-perform egg PE
ELISA performance compared with other single PE species ([1]; unsaturated versus saturated, longer versus shorter fatty acid tails): better performance
OD value relative to egg PE ([2]; FIG. 14, representative patient serum sample, 1 mg PE per well): ~14 folds
relative ELISA performance against egg PE ([2]; FIG. 14, representative patient serum sample, 1 mg PE per well, n=3): highest OD value
head-to-head ELISA performance versus egg PE ([2]; FIG. 15, 14 patient serum samples, P=0.012): out-performed egg PE significantly
improvement of aPE reactivity versus egg PE ([2]; FIG. 15, some samples): ≥ 500%
aPE reactivity of purified total IgG [3]: significant reactivity; also recorded: prefer
aPE reactivity of purified total IgG ([4]; FIG. 18, cofactor-dependent sample, total IgG 200 μg/ml): not
aPE reactivity of purified total IgG ([4]; FIG. 19, two other cofactor-dependent aPE samples): not

CCCCCCCC/C=C\CCCCCCCC(=O)OC[C@H](COP(=O)(O)OCCN)OC(=O)CCCCCCC/C=C\CCCCCCCC [DOPE, dioleoyl PE]
antigen concentration at which aPE reactivities peaked (cofactor-independent aPE): around 5 μg/ml
